Source: patent US5214204A, “Arylamidoalkyl-N-hydroxyurea compounds having lipoxygenase inhibitory activity” (Abbott Laboratories, priority 1991, dated 1993)

Legend:
[1] = biological target: T1, 5-Lipoxygenase from HWBL-1 20,000 xg Supernatant (Rattus norvegicus, UniProt P12527); assay: 5-lipoxygenase inhibition, 20,000 xg supernatant of homogenized HWBL-1 cells, radiolabeled arachidonic acid; format: biochemical; conditions: read-out: IC50 (in vitro inhibitory potency against 5-lipoxygenase)
T1 construct: 20,000 xg supernatant from 1.5 million homogenized HWBL-1 cells; endogenous in cells
T1 sequence (P12527 1-673): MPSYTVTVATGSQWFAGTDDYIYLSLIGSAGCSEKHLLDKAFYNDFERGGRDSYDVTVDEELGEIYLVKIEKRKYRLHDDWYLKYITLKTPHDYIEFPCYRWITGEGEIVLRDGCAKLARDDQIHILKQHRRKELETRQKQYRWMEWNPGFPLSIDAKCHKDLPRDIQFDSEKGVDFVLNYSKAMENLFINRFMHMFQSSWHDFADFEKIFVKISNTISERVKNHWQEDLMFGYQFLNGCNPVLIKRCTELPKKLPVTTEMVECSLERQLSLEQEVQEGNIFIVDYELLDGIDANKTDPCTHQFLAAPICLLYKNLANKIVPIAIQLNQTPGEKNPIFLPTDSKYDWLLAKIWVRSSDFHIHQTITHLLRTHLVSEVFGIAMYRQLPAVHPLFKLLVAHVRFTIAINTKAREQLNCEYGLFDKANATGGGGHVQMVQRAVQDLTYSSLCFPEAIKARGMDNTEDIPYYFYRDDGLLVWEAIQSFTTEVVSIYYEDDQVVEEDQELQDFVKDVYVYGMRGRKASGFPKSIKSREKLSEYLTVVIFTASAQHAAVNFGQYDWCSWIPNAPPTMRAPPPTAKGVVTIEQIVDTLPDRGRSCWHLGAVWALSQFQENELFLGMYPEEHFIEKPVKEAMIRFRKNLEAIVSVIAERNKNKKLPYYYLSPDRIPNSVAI
Protocol: Assays to determine 5-lipoxygenase inhibitory activity of representative compounds of the present invention were performed in […] incubations containing the 20,000 xg supernatant from 1.5 million homogenized HWBL-1 cells and various concentrations of the test compound. Reactions were initiated by addition of radiolabeled arachidonic acid and terminated by acidification and ether extraction. Reaction products were separated from nonconverted substrate by thin layer chromatography and measured by liquid scintillation spectroscopy. All incubations are performed in triplicate. Inhibition of 5-lipoxygenase activity was calculated as the ratio of the amount of product formed in the presence and absence of inhibitor. IC50 values (concentration of compound producing 50% enzyme inhibition) were calculated by linear regression analysis of percentage inhibition versus log inhibitor concentration plots. (Dyer, R. D.; Haviv, F.; Hanel, A. M.; Bornemier, D. A.; Carter, G. W. Fed. Proc., Fed. Am. Soc. Exp. Biol. 1984, 43, 1462A).
In Vitro Inhibitory Potencies of Compounds of this Invention
Against 5-Lipoxygenase from HWBL-1 20,000 xg Supernatant

Leukotrienes = assay: inhibition of leukotriene biosynthesis in vivo, rat peritoneal anaphylaxis model, oral; conditions: oral gavage, 1 h before antigen challenge; for inhibition in vivo at 100 µmol/kg: 100 μmol/kg, read-out: % Inhibition of Leukotrienes, Oral Dose at 100 μmol/kg; for inhibition in vivo at 30 µmol/kg: read-out: % Inhibition of Leukotrienes, Oral Dose at 30 μmol/kg
Protocol: Inhibition of the biosynthesis of leuktrienes in vivo after oral administration of compound was determined using a rat peritoneal anaphylaxis model in a similar manner as that described by Young and coworkers (Young, P. R.; Dyer, R. D.; Carter, G. W. Fed. Proc., Fed. Am. Soc. Exp. Biol. 1985, 44, 1185). In this model rats were injected intraperitoneally (ip) with rabbit antibody to bovine serum albumin (BSA) and three hours later injected ip with BSA to induce an antgen-antibody response. Rats were sacrificed 15 minutes after this challenge and the peritoneal fluids were collected and analyzed for leukotriene levels. Test compounds were administered by gavage one hour prior to the antigen challenge. Percent inhibition values were determined by comparing the treatment group to the mean of the control group.

Molecule `NC(=O)N(O)CCNC(=O)c1cccc(Oc2ccccc2)c1` [Example 2] has an IC50 [1] of 230 nM and an inhibition in vivo at 100 µmol/kg (Leukotrienes) of 84%.
`CCCCOc1cccc(C(=O)NCCN(O)C(N)=O)c1` [Example 19] was tested, and the IC50 [1] was 260 nM and the inhibition in vivo at 100 µmol/kg (Leukotrienes) was 63%.
Molecule `NC(=O)N(O)CCCNC(=O)c1cccc(Oc2ccccc2)c1` [Example 21] has an IC50 [1] of 70 nM and an inhibition in vivo at 100 µmol/kg (Leukotrienes) of 95%.
`CNC(=O)N(O)CCCNC(=O)c1cccc(Oc2ccccc2)c1` [Example 23, N-Hydroxy-N'-methyl-N-[3-((3-phenoxybenzoyl)amino)propyl]urea] showed an inhibition in vivo at 30 µmol/kg (Leukotrienes; 30 μmol/kg) of 57%.
In the case of `NC(=O)N(O)CCNC(=O)c1cccc(Oc2ccc(Cl)cc2)c1` [Example 26, N-Hydroxy-N-[2-((3-(4-chlorophenoxy)benzoyl)amino)ethyl]urea], the IC50 [1] is reported as 160 nM and the inhibition in vivo at 100 µmol/kg (Leukotrienes) is reported as 99%.
With `C[C@H](CN(O)C(N)=O)NC(=O)c1cccc(Oc2ccccc2)c1` [Example 32, (R)-N-Hydroxy-N-[2-((3-phenoxybenzoyl)amino)propyl]urea] the IC50 [1] was 210 nM and the inhibition in vivo at 100 µmol/kg (Leukotrienes) was 90%.
`NC(=O)N(O)CCNC(=O)c1cccc(OCc2ccccc2)c1` [Example 35, N-Hydroxy-N-[2-((3-phenylmethyloxybenzoyl)amino)ethyl]urea] gave an IC50 [1] of 220 nM and an inhibition in vivo at 100 µmol/kg (Leukotrienes) of 15%.
`NC(=O)N(O)CCNC(=O)c1ccc(Oc2ccccc2)o1` [Example 36, N-Hydroxy-N-[2-((5-phenoxyfuran-2-oyl)amino)ethyl]urea] was tested, and the IC50 [1] was 130 nM and the inhibition in vivo at 30 µmol/kg (Leukotrienes; 30 μmol/kg) was 78%.
For `CN(CCN(O)C(N)=O)Cc1cccc(Oc2ccc(Cl)cc2)c1` [Example 37, N-Hydroxy-N-[2-(N-methyl-((3-(4-chlorophenoxy)phenyl)methyl)amino)ethyl]urea], the IC50 [1] was 100 nM and the inhibition in vivo at 100 µmol/kg (Leukotrienes) was 80%.
With `COc1ccc(Oc2cccc(CN(C)CCN(O)C(N)=O)c2)cc1` [Example 38] the IC50 [1] was 200 nM and the inhibition in vivo at 100 µmol/kg (Leukotrienes) was 86%.
With `CN(CCN(O)C(N)=O)Cc1cccc(Oc2cc(Cl)cc(Cl)c2)c1` [Example 40, N-Hydroxy-N-[2-(N-methyl-((3-(3,5-dichlorophenoxy)phenyl)methyl)amino)ethyl]urea] the IC50 [1] was 150 nM and the inhibition in vivo at 100 µmol/kg (Leukotrienes) was 76%.
Molecule `NC(=O)N(O)CCNC(=O)c1ccccc1Oc1ccccc1` [Example 51, N-Hydroxy-N-[2-((2-phenoxybenzoyl)amino)ethyl]urea] has an IC50 [1] of 240 nM and an inhibition in vivo at 30 µmol/kg (Leukotrienes; 30 μmol/kg) of 47%.
Work on `NC(=O)N(O)CCNC(=O)c1ccc(Oc2ccccc2)cc1` [Example 52, N-Hydroxy-N-[2-((4-phenoxybenzoyl)amino)ethyl]urea] yielded an IC50 [1] of 160 nM and an inhibition in vivo at 30 µmol/kg (Leukotrienes; 30 μmol/kg) of 19%.
Molecule `NC(=O)N(O)CCNC(=O)c1cccc(Oc2ccc(Br)cc2)c1` [Example 53, N-Hydroxy-N-[2-(3-((4-bromophenoxy)benzoyl)amino)ethyl]urea] has an IC50 [1] of 440 nM and an inhibition in vivo at 30 µmol/kg (Leukotrienes; 30 μmol/kg) of 33%.
In the case of `NC(=O)N(O)CCNC(=O)c1cccc(Oc2ccc(F)cc2)c1` [Example 54, N-Hydroxy-N-[2-(3-((4-fluorophenoxy)benzoyl)amino)ethyl]urea], the IC50 [1] is reported as 150 nM and the inhibition in vivo at 30 µmol/kg (Leukotrienes; 30 μmol/kg) is reported as 11%.
`NC(=O)N(O)CCNC(=O)c1cccc(Oc2ccccn2)c1` [Example 55, N-Hydroxy-N-[2-((3-(pyrid-2-yloxy)benzoyl)amino)ethyl]urea] was tested, and the IC50 [1] was 1000 nM and the inhibition in vivo at 100 µmol/kg (Leukotrienes) was 83%.
In the case of `NC(=O)N(O)CCNC(=O)Cc1cccc(Oc2ccccc2)c1` [Example 56, N-Hydroxy-N-[2-((3-phenoxyphenylacetyl)amino)ethyl]urea], the IC50 [1] is reported as 220 nM and the inhibition in vivo at 100 µmol/kg (Leukotrienes) is reported as 85%.
With `NC(=O)N(O)CCNC(=O)c1ccc(Oc2ccc(Cl)cc2)o1` [Example 58, N-Hydroxy-N-[2-((5-(4-chlorophenoxy)furan-2-oyl)amino)ethyl]urea] the IC50 [1] was 110 nM and the “% Inhibition of Leukotrienes, Oral Dose at 50 μmol/kg” value (Leukotrienes) was 81%.
Molecule `C[C@@H](CN(O)C(N)=O)NC(=O)c1ccc(Oc2ccc(F)cc2)o1` [Example 60] has an IC50 [1] of 280 nM and an inhibition in vivo at 100 µmol/kg (Leukotrienes) of 84%.
`NC(=O)N(O)CCNC(=O)c1ccc(Oc2ccc(F)cc2)o1` [Example 61] was tested, and the IC50 [1] was 160 nM and the “% Inhibition of Leukotrienes, Oral Dose at 50 μmol/kg” value (Leukotrienes) was 60%.
`NC(=O)N(O)CCNC(=O)c1cc2ccccc2o1` [Example 63, N-Hydroxy-N-[((benzo[b]furan-2-oyl)amino)ethyl]urea] showed an IC50 [1] of 1000 nM and an inhibition in vivo at 30 µmol/kg (Leukotrienes; 30 μmol/kg) of 52%.
Work on `NC(=O)N(O)CCNC(=O)COc1ccccc1Oc1ccccc1` [Example 73, N-Hydroxy-N-[2-((2-phenoxyphenoxyacetyl)amino)ethyl]urea] yielded an inhibition in vivo at 30 µmol/kg (Leukotrienes; 30 μmol/kg) of 53%.
`CC(CNC(=O)OC(C)(C)C)N(O)C(N)=O` (centres unmarked) [Example 85, (d.l)-N-Hydroxy-N-[3-((tert-butyoxycarbonyl)amino)prop-2-yl]urea] was tested, and the IC50 [1] was 290 nM.
`CC(Oc1ccccc1C(=O)NCCN(O)C(N)=O)c1ccccc1` (centres unmarked) [Example 87, N-Hydroxy-N-[2-((2-(1-phenylethyloxy)benzoyl)amino)ethyl]urea] showed an IC50 [1] of 370 nM and an inhibition in vivo at 100 µmol/kg (Leukotrienes) of 60%.
For `CC(CCNC(=O)c1ccc(Oc2ccc(F)cc2)o1)N(O)C(N)=O` (centres unmarked) [Example 88, N-Hydroxy-N-[4-((5-(4-fluorophenoxy)furan-2-oyl)amino)but-2-yl]urea], the IC50 [1] was 280 nM and the inhibition in vivo at 30 µmol/kg (Leukotrienes; 30 μmol/kg) was 84%.
Work on “N-Hydroxy-N-[2-((3-(4-chlorophenylsulfonyl)benzoyl)amino)ethyl]urea [Example 62]” yielded an IC50 [1] of 910 nM.
In the case of “N-Hydroxy-N-[((4-chlorobenzo[b]thien-2-oyl)amino)ethyl]urea [Example 64]”, the IC50 [1] is reported as 2100 nM and the “% Inhibition of Leukotrienes, Oral Dose at 30 μmol/kg” value (Leukotrienes; 30 μmol/kg) is reported as 92%.
